For one assay, the system named is FAB1 TDP-43 yeast strain. In words: Propidium iodide viability assay, FAB1 TDP-43 control yeast strain. The settings on record: for FAB1 TDP-43 (active/inactive): FAB1 TDP-43 yeast model. It is filed as cell-based. How it is done:
(§1) Generation of TDP-43 yeast model expressing human PIKfyve. Human PIKFYVE (“entry clone”) was cloned into […] (“destination vector”) according to standard Gateway cloning protocols (Invitrogen, Life Technologies). The resulting pAG416GPD-PIKFYVE plasmids were amplified in E. coli and plasmid identity confirmed by restriction digest and Sanger sequencing. […]+) (FIG. 2). Transformed yeast were plated on solid agar plates with complete synthetic media lacking uracil (CSM-ura) and containing 2% glucose. Individual colonies harboring the control or PIKFYVE TDP-43 plasmids were recovered. A plasmid containing wild-type TDP-43 under the transcriptional control of the GAL1 promoter and containing the […] as a selectable marker was transformed into the […]-PIKFYVE yeast strain (FIG. 1). Transformed yeast were plated on CSM-ura containing 2% glucose and 200 μg/mL G418 after overnight recovery in media lacking antibiotic. Multiple independent isolates were further evaluated for cytotoxicity and TDP-43 expression levels. Viability Assay. A control yeast strain with the wild-type yeast FAB1 gene and TDP-43 (“FAB1 TDP-43”, carries empty pAG416 plasmid), and the “PIKFYVE TDP-43” yeast strain, were assessed for toxicity using a propidium iodide viability assay. Both yeast strains were transferred from solid CSM-ura/2% glucose agar plates into 3 mL of liquid CSM-ura/2% glucose media for 6-8 hours at 30° C. with aeration. Yeast cultures were then diluted to an optical density at 600 nm wavelength (OD600) of 0.005 in 3 mL of CSM-ura/2% raffinose and grown overnight at 30° C. with aeration to an OD600 of 0.3-0.8. Log-phase overnight cultures were diluted to OD600 of 0.005 in CSM-ura containing either 2% raffinose or galactose and 150 μL dispensed into each well of a flat bottom 96-well plates. Compounds formulated in 100% dimethyl sulfoxide (DMSO) were serially diluted in DMSO and 1.5 μL diluted compound transferred to the 96-well plates using a multichannel pipet. Wells containing DMSO alone were also evaluated as controls for compound effects. Tested concentrations ranged from 15 μM to 0.11 μM. Cultures were immediately mixed to ensure compound distribution and covered plates incubated at 30° C. for 24 hours in a stationary, humified incubator. Upon the completion of incubation, cultures were assayed for viability using propidium iodide (PI) to stain for dead/dying cells. A working solution of PI was made where, for each plate, 1 μL of 10 mM PI was added to 10 mL of CSM-ura (raffinose or galactose). […] The overnight 96-well assay plate was then mixed with a multichannel pipet and 50 μL transferred to the PI-containing plate. This plate was then incubated for 30 minutes at 30° C. in the dark. A benchtop flow cytometer (Miltenyi MACSquant) was then used to assess red fluorescence (B2 channel), forward scatter, and side scatter (with following settings: gentle mix, high flow rate, fast measurement, 10,000 events). Intensity histograms were then gated for “PI-positive” or “PI-negative” using the raffinose and galactose cultures treated with DMSO as controls. The DMSO controls for raffinose or galactose-containing cultures were used to determine the window of increased cell death and this difference set to 100. All compounds were similarly gated and then compared to this maximal window to establish the percent reduction in PI-positive cells.

In assay [1] the test system is PIKFYVE TDP-43 yeast strain. Put plainly: Propidium iodide viability assay, PIKFYVE TDP-43 yeast strain. It is filed as cell-based. To be noted: for PIKfyve TDP-43 (active/inactive): PIKFYVE TDP-43 yeast model. How it is done: as §1
In a further assay the test system is U2OS cells. Put plainly: EEA1 assay (endosomal vesicle enlargement as surrogate readout of PIKFyve inhibition). The format is cell-based. To be noted: 3 hours of treatment. The procedure: EEA1 Assay. Genetic or pharmacological disruption of PIKfyve activity results in enlargement of endosomal vesicles. This enlargement was utilized as a surrogate readout of PIKFyve inhibition for routine triage of PIKfyve inhibitors. U2OS cells grown in 96-well assay plates were treated with compound diluted in DMEM media containing 10% fetal bovine serum. After 3 hours of treatment, cells were fixed with paraformaldehyde, permeabilized with 0.2% Triton-X in phosphate buffered saline and stained against EEA1. During the secondary antibody staining, cells were also stained with CellMask DeepRed and Hoechst to detect cytoplasms and nuclei respectively. Endosomal structures were visualized using a high content imager at 40× magnification. Images were analyzed using a linear classifier algorithm integrating EEA1 spot size, intensity and texture trained on images of cells treated with the potent reference compound APY0201. Compound activity was calculated by subtracting the DMSO signal and calculating percentage activity relative to maximal APY0201 activity. IC50s were then calculated from concentration vs. % inhibition data by logistic regression.

For assay [2], the target named is full-length human PIKFYVE (Homo sapiens (Human), UniProt Q9Y2I7, L932S/Q1183K/Q995L/S1033A/S696N/T998S). In words: PIKfyve biochemical assay (ADP-Glo Kinase assay, Carna Biosciences). To be noted: class symbols. The gist of the method: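 N-terminal GST-fused full-length PIKFYVE from baculovirus, incubated with compound, substrate and ATP in 50 mM MOPS, 1 mM DTT, pH7.2 for 1 hour at room temperature. ADP formed detected by ADP-Glo luminescence; IC50 from four-parameter logistic fit of % inhibition.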
In general terms: ADP-Glo turns the ADP formed in a reaction into a luminescent signal.

Sequence of full-length human PIKFYVE (Q9Y2I7 whole entry S696N/L932S/Q995L/T998S/S1033A/Q1183K, the tested form may be a part): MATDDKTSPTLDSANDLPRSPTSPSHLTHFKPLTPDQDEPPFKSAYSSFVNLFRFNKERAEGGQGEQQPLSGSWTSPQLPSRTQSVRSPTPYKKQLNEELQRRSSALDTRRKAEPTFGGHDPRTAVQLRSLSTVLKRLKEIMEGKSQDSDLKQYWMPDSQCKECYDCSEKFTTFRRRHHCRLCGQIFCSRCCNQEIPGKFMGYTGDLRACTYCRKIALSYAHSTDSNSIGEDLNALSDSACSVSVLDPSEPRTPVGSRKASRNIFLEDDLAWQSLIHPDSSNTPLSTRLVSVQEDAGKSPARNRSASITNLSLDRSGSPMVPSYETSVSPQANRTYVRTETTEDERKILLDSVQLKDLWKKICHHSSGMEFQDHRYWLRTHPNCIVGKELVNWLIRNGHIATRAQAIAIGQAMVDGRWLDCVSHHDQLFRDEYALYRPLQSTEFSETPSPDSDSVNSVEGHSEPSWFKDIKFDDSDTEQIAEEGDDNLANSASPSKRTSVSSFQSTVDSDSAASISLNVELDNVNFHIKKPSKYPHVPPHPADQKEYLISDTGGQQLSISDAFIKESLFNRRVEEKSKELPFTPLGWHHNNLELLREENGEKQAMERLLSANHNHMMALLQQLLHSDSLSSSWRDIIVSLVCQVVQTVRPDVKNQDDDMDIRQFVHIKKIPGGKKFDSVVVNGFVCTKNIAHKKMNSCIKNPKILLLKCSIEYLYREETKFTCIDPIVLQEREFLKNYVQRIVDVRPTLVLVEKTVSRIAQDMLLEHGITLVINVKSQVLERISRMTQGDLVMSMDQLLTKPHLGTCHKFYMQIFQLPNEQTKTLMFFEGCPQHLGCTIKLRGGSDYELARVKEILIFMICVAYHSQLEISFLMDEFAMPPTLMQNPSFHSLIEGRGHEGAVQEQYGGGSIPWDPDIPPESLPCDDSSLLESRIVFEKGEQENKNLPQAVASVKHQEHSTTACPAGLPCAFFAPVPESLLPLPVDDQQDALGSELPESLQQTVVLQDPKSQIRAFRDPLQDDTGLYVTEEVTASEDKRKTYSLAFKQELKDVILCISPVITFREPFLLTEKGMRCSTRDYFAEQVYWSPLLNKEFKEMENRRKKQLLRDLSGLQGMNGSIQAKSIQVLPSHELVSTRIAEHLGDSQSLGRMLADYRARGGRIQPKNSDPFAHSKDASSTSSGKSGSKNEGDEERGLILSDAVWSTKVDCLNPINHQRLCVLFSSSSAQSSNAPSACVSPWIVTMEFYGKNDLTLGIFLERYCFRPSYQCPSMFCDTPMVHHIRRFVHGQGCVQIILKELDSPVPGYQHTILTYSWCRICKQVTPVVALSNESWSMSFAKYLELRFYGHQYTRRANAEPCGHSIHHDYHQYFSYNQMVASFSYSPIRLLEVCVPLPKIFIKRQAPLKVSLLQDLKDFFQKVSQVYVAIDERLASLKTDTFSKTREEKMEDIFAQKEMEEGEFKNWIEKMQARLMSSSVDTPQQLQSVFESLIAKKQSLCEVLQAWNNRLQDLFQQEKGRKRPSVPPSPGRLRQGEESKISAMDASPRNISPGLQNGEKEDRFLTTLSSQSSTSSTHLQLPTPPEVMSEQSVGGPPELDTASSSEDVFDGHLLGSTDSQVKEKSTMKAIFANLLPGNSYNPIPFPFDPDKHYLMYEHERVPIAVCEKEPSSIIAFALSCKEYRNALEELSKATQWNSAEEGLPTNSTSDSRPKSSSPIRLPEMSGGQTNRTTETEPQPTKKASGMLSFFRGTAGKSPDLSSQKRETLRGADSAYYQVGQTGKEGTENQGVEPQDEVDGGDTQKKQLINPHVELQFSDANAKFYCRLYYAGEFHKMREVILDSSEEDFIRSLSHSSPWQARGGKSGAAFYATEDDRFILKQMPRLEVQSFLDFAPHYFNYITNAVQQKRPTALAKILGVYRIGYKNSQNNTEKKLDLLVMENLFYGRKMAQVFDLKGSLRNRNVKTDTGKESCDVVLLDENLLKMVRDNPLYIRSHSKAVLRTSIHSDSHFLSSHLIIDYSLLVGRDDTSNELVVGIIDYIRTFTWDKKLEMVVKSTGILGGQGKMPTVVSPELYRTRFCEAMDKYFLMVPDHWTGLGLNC

Take `Cn1c(-c2ccncc2)nc2c(N3CCOCC3)ncnc21`: the “FAB1 TDP-43 (active/inactive)” value in the assay on FAB1 TDP-43 yeast strain was “Inactive”. In addition, in assay [1], the “PIKfyve TDP-43 (active/inactive)” value is given as “Inactive”.

Regarding `CN(C)c1cc(N2CCOCC2)n2nc(-c3ccncc3)cc2n1`, the “FAB1 TDP-43 (active/inactive)” value in the assay with FAB1 TDP-43 yeast strain is “Inactive”. In addition, the “PIKfyve TDP-43 (active/inactive)” value in assay [1] was “Inactive”.

Consider `Cc1cccc(/C=N/Nc2cc(N3CCOCC3)n3nc(-c4ccncc4)cc3n2)c1` [APYO201, reference compound], for which the “viable cells in FAB1 TDP-43” value with FAB1 TDP-43 yeast strain (across a range of compound concentrations (only 0.23 μM is shown), FIG. 5) is reported as “no increase in viable cells”. For the same molecule, the “population of propidium iodide-positive dead cells in PIKFYVE TDP-43” value in assay [1] (0.23 μM, FIG. 6) is “reduced the population of propidium iodide-positive dead cells”.

On to `Oc1cc(-c2ccccc2)nn1-c1cc(N2CCOCC2)n2nc(-c3ccncc3)cc2n1` [Compound 51, 1-(7-morpholino-2-(pyridin-4-yl)pyrazolo[1,5-a]pyrimidin-5-yl)-3-phenyl-1H-pyrazol-5-ol], for which the IC50 (usually the point on the concentration scale where inhibition reaches its midpoint) with U2OS cells (Homo sapiens, class symbols) was 1000 to 10000 nM; in assay [2] it was < 10 nM.

On to `Cc1cccc(-c2ccn(-c3cc(N4CCOCC4)n4nc(-c5ccncc5)cc4n3)n2)c1` [Compound 65, 4-(2-(pyridin-4-yl)-5-(3-(m-tolyl)-1H-pyrazol-1-yl)pyrazolo[1,5-a]pyrimidin-7-yl)morpholine], for which the IC50 in the assay with U2OS cells (Homo sapiens, class symbols) lay in the range of 100 to 1000 nM; in assay [2], 10 to 100 nM.

As to `COc1nn(-c2cc(N3CCOCC3)n3nc(-c4ccncc4)cc3n2)cc1-c1ccccc1` [Compound 66, 4-(5-(3-methoxy-4-phenyl-1H-pyrazol-1-yl)-2-(pyridin-4-yl)pyrazolo[1,5-a]pyrimidin-7-yl)morpholine], the IC50 is > 3000 nM with U2OS cells (Homo sapiens, numeric values) and > 10000 nM in assay [2].

For `COc1cccc(-c2ccn(-c3cc(N4CCOCC4)n4nc(-c5ccncc5)cc4n3)n2)c1` [Compound 71, 4-(5-(3-(3-methoxyphenyl)-1H-pyrazol-1-yl)-2-(pyridin-4-yl)pyrazolo[1,5-a]pyrimidin-7-yl)morpholine], the IC50 with U2OS cells (Homo sapiens, class symbols) was 100 to 1000 nM; in assay [2], 10 to 100 nM.

Regarding `COc1nn(-c2cc(N3CCOCC3)n3nccc3n2)cc1-c1ccccc1` [Compound 77, 4-(5-(3-methoxy-4-phenyl-1H-pyrazol-1-yl)pyrazolo[1,5-a]pyrimidin-7-yl)morpholine], the IC50 in the assay on U2OS cells (class symbols) is 1000 to 10000 nM; in assay [2] it was > 10000 nM.

Regarding `Cc1cccc(-c2ccn(-c3cc(N4CCOCC4)n4nc(-c5cccnc5)cc4n3)n2)c1` [Compound 79], the half-maximal inhibitory concentration (IC50) in the assay on U2OS cells (Homo sapiens, class symbols) was 100 to 1000 nM; in assay [2], < 10 nM.

Take `c1ccc(-c2nccc(-c3cc(N4CCOCC4)n4nc(C5CCCO5)cc4n3)n2)cc1` (stereo not drawn) [Compound 97, 4-(5-(2-phenylpyrimidin-4-yl)-2-(tetrahydrofuran-2-yl)pyrazolo[1,5-a]pyrimidin-7-yl)morpholine]: the IC50 in the assay on U2OS cells (Homo sapiens, class symbols) lay in the range of 1000 to 10000 nM; in assay [2], 10 to 100 nM.

Consider `Cn1ccc(-c2cccc(-c3cc(N4CCOCC4)n4nc(-c5ccncc5)cc4n3)c2)n1` [Compound 142, 4-(5-(3-(1-methyl-1H-pyrazol-3-yl)phenyl)-2-(pyridin-4-yl)pyrazolo[1,5-a]pyrimidin-7-yl)morpholine], for which the IC50 in the assay with U2OS cells (Homo sapiens, class symbols) fell in the range of 1000 to 10000 nM; in assay [2], 10 to 100 nM.

For `Cc1cccc(/C=N/Nc2cc(N3CCOCC3)n3nc(-c4ccncc4)cc3n2)c1` [drawing 327], the “FAB1 TDP-43 (active/inactive)” value in the assay with FAB1 TDP-43 yeast strain is “Inactive”. In addition, the “PIKfyve TDP-43 (active/inactive)” value in assay [1] is given as “Active”.

For `Cc1cccc(/C=N/Nc2cc(N3CC4CC3CO4)n3nc(-c4ccncc4)cc3n2)c1` (stereo not drawn) [drawing 328], in the assay with FAB1 TDP-43 yeast strain, the “FAB1 TDP-43 (active/inactive)” value was “Inactive”. The “PIKfyve TDP-43 (active/inactive)” value in assay [1] was “Active”.

For `Cc1cccc(/C=N/Nc2nc(N3CCOCC3)c3nc(-c4ccncc4)n(C)c3n2)c1` [drawing 329], the “FAB1 TDP-43 (active/inactive)” value in the assay on FAB1 TDP-43 yeast strain was “Inactive”. In addition, the “PIKfyve TDP-43 (active/inactive)” value in assay [1] is reported as “Active”.

Regarding `N#Cc1cc(N2CCOCC2)n2nc(-c3ccncc3)cc2n1` [drawing 332], the “FAB1 TDP-43 (active/inactive)” value in the assay with FAB1 TDP-43 yeast strain is listed as “Inactive”. For the same molecule, the “PIKfyve TDP-43 (active/inactive)” value in assay [1] was “Inactive”.

The record behind these values is patent publication US20250353852A1, “COMPOUNDS AND COMPOSITIONS THAT INHIBIT PIKFYVE” (Kineta, Inc., priority 2021, published 2025).
